How the values were obtained:
CDK4/Cyclin D1 = biological target: T1, CDK4/Cyclin D1 (Homo sapiens, UniProt P11802); experiment: CDK4 filtration kinase assay; format: biochemical; conditions: CDK4/Cyclin D1, Rb fragment substrate, [33P]-ATP
T1 construct: purchased Cell Signaling Technology
Description: The CDK4 inhibitory activity of the cell cycle inhibitors was determined with a filtration kinase assay. The compounds, kinase and substrate diluted in the kinase buffer (20 mM Tris, pH7.4, 50 mM NaCl, 1 mM DTT, 0.1% BSA) were sequentially added to a 96-well Multiscreen HTS filtration plate (Millipore). The final 100 μL reaction mixture in each well contained 0.3 μg of CDK4/Cyclin D1 (Cell Signaling Technology), 1 μg of Rb fragment (aa773-928, Millipore) for the CDK4 assay and 1 μCi of [^33P]-ATP. The mixture was incubated at room temperature for 1 hour. The proteins in the reaction were then precipitated and washed with cold TCA solution using an aspiration/filtration vacuum system. The plates were dried at room temperature, and the retained radioactivity was measured by scintillation counting. IC50 values of the compounds in the above assays were determined by non-linear regression analysis using Prism (GraphPad Software).

[1] = test system: transfected CHO cells expressing recombinant human monoclonal antibody (cell line 1); experiment: 24-deep well culture, cell line 1: VCD, viability, titer, qP; format: cell-based, Chinese hamster; conditions: for Titer / VCD / Viability / qP: Cell Line 1; for effect on viability / growth arrest: summary of Table 2
Description: Transfected CHO cells expressing a recombinant human monoclonal antibody (mAb) are cultured in 24-deep well plates with seeding density at 1×10^7/mL for five days. At certain time periods, samples of the cultures are taken and evaluated for viable cell density (VCD; expressed in 10^6 cells/mL); percent viability (as determined by trypan blue exclusion); titer of recombinant protein (expressed in grams of protein per liter of culture, or g/L, as determined by Protein A affinity HPLC); qP, or specific productivity (expressed in picograms of recombinant protein per cell per day, or pg/c/d), the presence or absence of high molecular weight substances (usually an indicator of protein aggregation; expressed as % of the total protein); and the relative percentage of Mannose 5, a major intermediate glyco-form that attaches to N297 of the mAb. N-linked glycosylation has an impact on the tertiary structure of the antibody and may affect Fc mediated antibody effector functions. The majority of the human Fc glycans are complex biantennary structures with galactose as the prevalent terminal sugar. Immature glyco-forms, such as high-mannose glycol-forms (Man5-9), are of concern due to potential higher plasma clearance rate (as compared to the clearance rate of complex glycan linked mAbs).
Compounds are further evaluated essentially as described in Example 2 herein. Briefly, transfected CHO cells expressing recombinant human monoclonal antibody (mAb; two different cell lines expressing two different mAb, referred to as cell line 1 and cell line 2) are cultured in 24-deep well plates in the presence or absence of the compounds. At specified time points, samples of the cultures are taken and evaluated for viable cell density (VCD; expressed in 10^6 cells/mL); percent viability (as determined by any method known in the art); titer of recombinant protein (expressed in grams of protein per liter of culture, or g/L, as determined by Protein A affinity HPLC); qP, or specific productivity (expressed in picograms of recombinant protein per cell per day, or pg/c/d). Additional parameters measure include the presence or absence of high molecular weight substances (usually an indicator of protein aggregation; expressed as % of the total protein); and the relative percentage of Mannose 5. For comparison purposes, Compounds A and B, which had been previously tested, were tested again.

Colo205 = experiment: [14C]-thymidine incorporation cell proliferation inhibition assay; format: cell-based; conditions: Homo sapiens, COLO 205, 72 hour incubation
Description: The cell proliferation inhibition potency of the cell cycle inhibitors was determined by using a [^14C]-thymidine incorporation assay. Exponentially growing cells (Colo205) were seeded in a 96-well Cytostar T plate (GE Healthcare Biosciences) at a density of 5×10^3 cells/well and incubated overnight. Serially diluted compounds and 0.1 μCi of [^14C]-thymidine (GE Healthcare Biosciences) were added to each well on the following day. After 72 hour incubation, isotope incorporation was determined with a β plate counter (Wallac). IC50 values of the compounds in the above assays were determined by non-linear regression analysis using Prism (GraphPad Software).

T1 sequence (P11802 whole entry, species assumed, the tested form may be a part): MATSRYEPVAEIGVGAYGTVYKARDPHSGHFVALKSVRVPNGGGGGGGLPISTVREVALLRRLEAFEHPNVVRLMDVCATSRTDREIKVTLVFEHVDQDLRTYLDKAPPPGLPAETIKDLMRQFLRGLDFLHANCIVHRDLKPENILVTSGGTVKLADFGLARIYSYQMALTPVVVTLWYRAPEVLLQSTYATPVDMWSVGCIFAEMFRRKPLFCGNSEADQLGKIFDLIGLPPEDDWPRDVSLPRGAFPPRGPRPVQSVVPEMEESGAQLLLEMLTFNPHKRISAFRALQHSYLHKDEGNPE
T1 sequence (P24385 whole entry partner, species assumed, the tested form may be a part): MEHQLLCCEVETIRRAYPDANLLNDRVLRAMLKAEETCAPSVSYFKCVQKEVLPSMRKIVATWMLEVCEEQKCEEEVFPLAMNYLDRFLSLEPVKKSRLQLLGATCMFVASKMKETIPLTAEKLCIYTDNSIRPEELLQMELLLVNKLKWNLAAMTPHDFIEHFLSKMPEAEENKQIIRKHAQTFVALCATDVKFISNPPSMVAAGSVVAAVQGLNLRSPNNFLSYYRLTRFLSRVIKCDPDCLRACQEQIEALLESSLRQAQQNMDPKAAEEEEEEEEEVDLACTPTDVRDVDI

## CN(C)C1CCN(c2ccc(Nc3ncc4c5ccncc5n(C5CCCC5)c4n3)nn2)CC1 [Compound C, 9-cyclopentyl-N-(6-(4-(dimethylamino)piperidin-1-yl)pyridazin-3-yl)-9H-pyrido[4′,3′:4,5]pyrrolo[2,3-d]pyrimidin-2-amine]
CDK4/Cyclin D1
  IC50: 3.17 nM
[1]; 10 microM, D 1
  Titer: 0.48 g/L
  VCD: 10.72 e6/mL
  Viability: 94.37%
  qP: 44.45 pg/c/d
[1]; 10 microM, D 2
  Titer: 0.70 g/L
  VCD: 8.77 e6/mL
  Viability: 82.97%
  qP: 79.79 pg/c/d
[1]; 10 microM, D 3
  Titer: 0.94 g/L
  VCD: 10.83 e6/mL
  Viability: 84.46%
  qP: 86.83 pg/c/d
[1]; 10 microM, D 4
  Titer: 1.21 g/L
  VCD: 12.18 e6/mL
  Viability: 78.70%
  qP: 99.64 pg/c/d
[1]; 20 microM, D 1
  Titer: 0.48 g/L
  VCD: 11.00 e6/mL
  Viability: 94.55%
  qP: 43.31 pg/c/d
[1]; 20 microM, D 2
  Titer: 0.67 g/L
  VCD: 8.28 e6/mL
  Viability: 80.00%
  qP: 80.51 pg/c/d
[1]; 20 microM, D 3
  Titer: 0.85 g/L
  VCD: 9.22 e6/mL
  Viability: 78.87%
  qP: 91.80 pg/c/d
[1]; 20 microM, D 4
  Titer: 1.10 g/L
  VCD: 10.18 e6/mL
  Viability: 74.13%
  qP: 108.01 pg/c/d
[1]
  effect on viability: greater (but still modest) decreases in viability
  growth arrest: more sustained growth arrest
Colo205
  IC50: 17.1 nM

## CC1CCC(n2c3cnccc3c3cnc(Nc4ccc(N5CCNC(C)C5)nn4)nc32)CC1 (stereo not shown) [Compound D, 9-(4-methylcyclohexyl)-N-(6-(3-methylpiperazin-1-yl)pyridazin-3-yl)-9H-pyrido[4′,3′:4,5]pyrrolo[2,3-d]pyrimidin-2-amine]
CDK4/Cyclin D1
  IC50: 1.86 nM
[1]; 2.5 microM, D 1
  Titer: 0.49 g/L
  VCD: 11.85 e6/mL
  Viability: 95.50%
  qP: 41.37 pg/c/d
[1]; 2.5 microM, D 2
  Titer: 0.73 g/L
  VCD: 10.72 e6/mL
  Viability: 87.30%
  qP: 67.79 pg/c/d
[1]; 2.5 microM, D 3
  Titer: 0.98 g/L
  VCD: 11.11 e6/mL
  Viability: 84.83%
  qP: 87.94 pg/c/d
[1]; 2.5 microM, D 4
  Titer: 1.27 g/L
  VCD: 14.71 e6/mL
  Viability: 82.00%
  qP: 86.32 pg/c/d
[1]; 5 microM, D 1
  Titer: 0.49 g/L
  VCD: 11.76 e6/mL
  Viability: 95.92%
  qP: 41.95 pg/c/d
[1]; 5 microM, D 2
  Titer: 0.70 g/L
  VCD: 10.17 e6/mL
  Viability: 86.10%
  qP: 69.17 pg/c/d
[1]; 5 microM, D 3
  Titer: 0.87 g/L
  VCD: 9.71 e6/mL
  Viability: 79.43%
  qP: 89.92 pg/c/d
[1]; 5 microM, D 4
  Titer: 1.11 g/L
  VCD: 11.94 e6/mL
  Viability: 76.30%
  qP: 92.69 pg/c/d
[1]; 10 microM, D 1
  Titer: 0.49 g/L
  VCD: 11.35 e6/mL
  Viability: 94.69%
  qP: 43.16 pg/c/d
[1]; 10 microM, D 2
  Titer: 0.67 g/L
  VCD: 9.65 e6/mL
  Viability: 82.20%
  qP: 69.81 pg/c/d
[1]; 10 microM, D 3
  Titer: 0.86 g/L
  VCD: 9.31 e6/mL
  Viability: 76.69%
  qP: 92.01 pg/c/d
[1]; 10 microM, D 4
  Titer: 0.99 g/L
  VCD: 10.04 e6/mL
  Viability: 70.89%
  qP: 98.63 pg/c/d
[1]
  effect on viability: minimal effects on viability
  growth arrest: reasonably sustained growth arrest
Colo205
  IC50: 29.9 nM

## CC1CCC(n2c3cnccc3c3cnc(Nc4ccc(N5CCC6(CC5)CCS(=O)(=O)C6)nn4)nc32)CC1 (stereo not shown) [Compound E, 8-(6-((9-(4-methylcyclohexyl)-9H-pyrido[4′,3′:4,5]pyrrolo[2,3-d]pyrimidin-2-yl)amino)pyridazin-3-yl)-2-thia-8-azaspiro[4.5]decane 2,2-dioxide]
CDK4/Cyclin D1
  IC50: 4.45 nM
[1]; 5 microM, D 1
  Titer: 0.47 g/L
  VCD: 10.31 e6/mL
  Viability: 95.94%
  qP: 45.61 pg/c/d
[1]; 5 microM, D 2
  Titer: 0.67 g/L
  VCD: 9.37 e6/mL
  Viability: 85.43%
  qP: 71.53 pg/c/d
[1]; 5 microM, D 3
  Titer: 0.85 g/L
  VCD: 10.05 e6/mL
  Viability: 79.09%
  qP: 84.92 pg/c/d
[1]; 5 microM, D 4
  Titer: 0.98 g/L
  VCD: 10.39 e6/mL
  Viability: 72.71%
  qP: 94.68 pg/c/d
[1]; 10 microM, D 1
  Titer: 0.48 g/L
  VCD: 9.99 e6/mL
  Viability: 94.71%
  qP: 47.72 pg/c/d
[1]; 10 microM, D 2
  Titer: 0.66 g/L
  VCD: 9.29 e6/mL
  Viability: 83.23%
  qP: 71.04 pg/c/d
[1]; 10 microM, D 3
  Titer: 0.83 g/L
  VCD: 9.55 e6/mL
  Viability: 76.37%
  qP: 87.30 pg/c/d
[1]; 10 microM, D 4
  Titer: 0.96 g/L
  VCD: 10.29 e6/mL
  Viability: 72.16%
  qP: 92.97 pg/c/d
[1]
  effect on viability: greater (but still modest) decreases in viability
  growth arrest: more sustained growth arrest
Colo205
  IC50: 38.4 nM

## CN(C)C1CCN(c2ccc(Nc3ncc4c(n3)C3(C=CC(C)(C)CC3)c3cnccc3-4)cn2)CC1 (stereo not shown) [Compound F, N-(6-(4-(dimethylamino)piperidin-1-yl)pyridin-3-yl)-4,4-dimethylspiro[cyclohex[2]ene-1,9′-pyrido[4′,3′:3,4]cyclopenta[1,2-d]pyrimidin]-2′-amine]
CDK4/Cyclin D1
  IC50: 33.5 nM
[1]; 1.2 microM, D 1
  Titer: 0.49 g/L
  VCD: 11.56 e6/mL
  Viability: 96.84%
  qP: 42.39 pg/c/d
[1]; 1.2 microM, D 2
  Titer: 0.73 g/L
  VCD: 10.80 e6/mL
  Viability: 90.23%
  qP: 67.31 pg/c/d
[1]; 1.2 microM, D 3
  Titer: 0.96 g/L
  VCD: 11.96 e6/mL
  Viability: 89.40%
  qP: 80.01 pg/c/d
[1]; 1.2 microM, D 4
  Titer: 1.13 g/L
  VCD: 14.70 e6/mL
  Viability: 88.76%
  qP: 77.09 pg/c/d
[1]; 2.4 microM, D 1
  Titer: 0.50 g/L
  VCD: 11.16 e6/mL
  Viability: 95.96%
  qP: 44.50 pg/c/d
[1]; 2.4 microM, D 2
  Titer: 0.75 g/L
  VCD: 10.01 e6/mL
  Viability: 89.97%
  qP: 75.27 pg/c/d
[1]; 2.4 microM, D 3
  Titer: 0.97 g/L
  VCD: 10.33 e6/mL
  Viability: 88.89%
  qP: 93.88 pg/c/d
[1]; 2.4 microM, D 4
  Titer: 1.18 g/L
  VCD: 12.84 e6/mL
  Viability: 86.16%
  qP: 91.87 pg/c/d
[1]
  effect on viability: minimal effects on viability
  growth arrest: reasonably sustained growth arrest
Colo205
  IC50: 34.7 nM

From patent US20180087079A1, “METHODS OF USING CELL-CYCLE INHIBITORS TO MODULATE ONE OR MORE PROPERTIES OF A CELL CULTURE” (AMGEN INC., priority 2013, published 2018)
